Measurements as given in patent publication EP0155486A1, “1,3,5-Trisubstituted 1,2,4-triazole derivatives, process for their preparation and medicinal preparations containing them” (priority 1984, dated 1985).
Where two headings read alike, the source gives them in different places.

Tests used:
[1] = in vivo; settings: rat, po, peroral, rats, read-out: Peroraler LD50-Wert in mg/kg an Ratten
[2] = test system: männlichen Ratten der Art Long Evans; assay: animal or person; type: in vivo; settings: for Prozentuale Hemmung bei einer peroralen Dosis von 1,56 mg/kg: peroral 1,56 mg/kg; for Prozentuale Hemmung bei einer peroralen Dosis von 3,12 mg/kg: peroral 3,12 mg/kg; for change in vivo at 6.25 mg/kg / change in vivo at 12.5 mg/kg: 504 h; for change in vivo at 6.25 mg/kg: read-out: Prozentuale Hemmung bei einer peroralen Dosis von 6,25 mg/kg; for ED50: read-out: Peroraler ED50-Wert in mg/kg an Ratten; for Therapeu-tischer Index LD50-Wert / ED50-Wert: ratio of peroral LD50 to peroral ED50, rats
Procedure: Die Untersuchung der therapeutischen Wirkung der erfindungsgemäßen 1,2,4-Triazolderivate wurde mittels des modifizierten Newbould-Prüfversuches (Brit. J. Pharmacol., 21 [1963], Seite 127) durchgeführt. Dazu wurde in die rechen Hinterfüße von männlichen Ratten der Art Long Evans mit Gewichten von 180 bis 250 g intraplantar […] abgetötetes Mycobacterium tuberculosis in einem Volumen von 0,1 ml injiziert. Nachfolgend wurden die Ratten pro betreffenden Tag mit einer Dosis der zu untersuchenden Verbindung insgesamt 16-mal während 3 Wochen behandelt. Die Änderung des Volumens der Fußschwellung wurde 21 Tage lang täglich mit einem Quecksilber-Plethysmometer vom Lence-Typ bestimmt. Vom 10-ten Tag an wurde das Volumen des linken Hinterfußes bestimmt. Die prozentuale Hemmung wurde im Verhältnis zu diesem Volumen aus der eintretenden Änderung in der Schwellung des rechten Hinterfußes berechnet.

[3] = test system: Ratten; assay: ulcerogenic side effect; type: in vivo
Procedure: Auch die geschwürbildende beziehungsweise ulcerogene Wirkung, eine der kritischsten Nebenwirkungen entzündungshemmender Mittel, betreffend erwiesen sich die erfindungsgemäßen 1,2,4-Triazolderivate als im Vergleich zu Handelspräparaten günstiger. So führten Einzeldosen von 15 mg/kg 1-(p-Chlorbenzoyl)-5-(methoxy)-2-(methyl)-indol-3-ylessig- säure {Indometacin} bei 100% der Ratten Geschwüre (Ulcus) herbei, während Einzeldosen von 1 000 mg/kg 1,5-Bis-[4'--(chlor)-phenyl]-3-[methylthio]-1,2,4-triazol (Verbindung des Beispieles 27) nur bei 10% der Tiere Geschwüre verursachten.

[4] = 16 doses during 3 weeks, paw swelling, rats
[5] = po, peroral 12,5 mg/kg, 16 doses during 3 weeks, paw swelling, rats, read-out: Prozentuale Hemmung bei einer peroralen Dosis von 12,5 mg/kg
[6] = po, read-out: Prozentuale Hemmung bei einer peroralen Dosis von 12,5 mg/kg

With `CSc1nc(-c2ccc(Cl)cc2)n(-c2ccc(F)cc2)n1` [Beispiel 55, 1-[4'-(Fluor)-phenyl]-5-[4"-(chlor)-phenyl]-3--[methylthio]-1,2,4-triazol] the LD50 [1] was 380 mg/kg, the “Prozentuale Hemmung bei einer peroralen Dosis von 1,56 mg/kg” value [2, 4] was -12% and the “Prozentuale Hemmung bei einer peroralen Dosis von 3,12 mg/kg” value [2, 4] was -26%. For the same compound, the change in vivo at 6.25 mg/kg ([2]; po) was -68%, the ED50 ([2]; po) was 6.8 mg/kg and the “Therapeu-tischer Index LD50-Wert / ED50-Wert” value [2] was 55,9.
With `CSc1nc(-c2ccc(F)cc2)n(-c2ccc(F)cc2)n1` [Beispiel 41, 1-[4'-(Fluor)-phenyl]-5-[4"-(fluor)-phenyl]-3--[methylthio]-1,2,4-triazol] the “Prozentuale Hemmung bei einer peroralen Dosis von 3,12 mg/kg” value [2, 4] was -42% and the change in vivo at 6.25 mg/kg ([2]; po) was -57%.
`CSc1nc(-c2ccc(Cl)cc2)n(-c2cccc(C(F)(F)F)c2)n1` [Beispiel 42, 1-[3'-(Trifluormethyl)-phenyl]-5-[4"-(Chlor)-phenyl]--3-[methylthio]-1,2,4-triazol] gave a change in vivo at 6.25 mg/kg ([2]; po) of -48%.
In the case of `CSc1nc(-c2ccc(F)cc2)n(-c2ccc(Cl)cc2)n1` [Beispiel 44, 1-[4'-(Chlor)-phenyl]-5-[4"-(fluor)-phenyl]-3--[methylthio]-1,2,4-triazol], the LD50 [1] is reported as 170 mg/kg, the “Prozentuale Hemmung bei einer peroralen Dosis von 1,56 mg/kg” value [2, 4] is reported as -36% and the “Prozentuale Hemmung bei einer peroralen Dosis von 3,12 mg/kg” value [2, 4] is reported as -64%. For the same compound, the change in vivo at 6.25 mg/kg ([2]; po) was -53%, the ED50 ([2]; po) was 2.1 mg/kg and the “Therapeu-tischer Index LD50-Wert / ED50-Wert” value [2] was 81,0.
With `CSc1nc(-c2cccs2)n(-c2ccc(Cl)cc2)n1` [Beispiel 30, 1-[4'-(Chlor)-phenyl]-5-[thien-2"-yl]-3-[methylthio]--1,2,4-triazol] the change in vivo at 12.5 mg/kg [2, 5] was -44%.
Compound `CSc1nc(-c2ccc(F)cc2)n(-c2cccc(C(F)(F)F)c2)n1` [Beispiel 47, 1-[3'-(Trifluormethyl)-phenyl]-5-[4"-(fluor)-phenyl]--3-[methylthio]-1,2,4-triazol] has a change in vivo at 6.25 mg/kg ([2]; po) of -22% and a change in vivo at 12.5 mg/kg [2, 5] of -53%.
In the case of `CSc1nc(-c2ccccc2SC)n(-c2ccc(Cl)cc2)n1` [Beispiel 14, 1-[4'-(Chlor)-phenyl]-5-[2"-(methylthio)-phenyl]-3--[methylthio]-1,2,4-triazol], the “Prozentuale Hemmung bei einer peroralen Dosis von 3,12 mg/kg” value [2, 4] is reported as -5% and the change in vivo at 12.5 mg/kg [2, 5] is reported as -51%.
`COc1ccc2cc([C@H](C)C(=O)O)ccc2c1` [Vergleichs-substanz B, (+)-2-[6'--(Methoxy)-naphth-2'-yl]-propionsäure, reference compound] showed an ED50 ([2]; po) of 12.5 mg/kg and a change in vivo at 10 mg/kg [2, 6] of -34%.
In the case of `CSc1nc(-c2ccc(F)cc2)n(-c2cccc(Cl)c2)n1` [Beispiel 53, 1-[3'-(Chlor)-phenyl]-5-[4"-(fluor)-phenyl]-3--[methylthio]-1,2,4-triazol], the change in vivo at 12.5 mg/kg [2, 5] is reported as -51%.
For `CSc1nc(-c2ccc(Cl)cc2)n(-c2ccc(Cl)cc2)n1` [Beispiel 27, 1,5-Bis-[4'-(chlor)-phenyl]-3--[methylthio]-1,2,4-triazol], the “Tiere mit Geschwüren” value ([3]; single dose 1 000 mg/kg, share of animals with ulcers) was 10%, the “Prozentuale Hemmung bei einer peroralen Dosis von 1,56 mg/kg” value [2, 4] was -17% and the “Prozentuale Hemmung bei einer peroralen Dosis von 3,12 mg/kg” value [2, 4] was -39%. The change in vivo at 6.25 mg/kg ([2]; po) was -55%, the change in vivo at 12.5 mg/kg [2, 6] was -67% and the ED50 ([2]; po) was 7.4 mg/kg.
For `Clc1ccc(-c2nc(SCc3ccccn3)nn2-c2ccc(Cl)cc2)cc1` [Beispiel 4, 1,5-Bis-[4'-(chlor)-phenyl]-3-[pyrid-2"-ylmethyl-thio]-1,2,4-triazol], the “Prozentuale Hemmung bei einer peroralen Dosis von 3,12 mg/kg” value [2, 4] was -38% and the change in vivo at 6.25 mg/kg ([2]; po) was -40%.
With `CSc1nc(-c2ccc(Cl)cc2)n(-c2ccc(Br)cc2)n1` [Beispiel 54, 1-[4'-(Brom)-phenyl]-5-[4"-(chlor)-phenyl]-3--[methylthio]-1,2,4-triazol] the change in vivo at 6.25 mg/kg ([2]; po) was -28% and the change in vivo at 12.5 mg/kg [2, 5] was -56%.
In the case of `CCCCC1C(=O)N(c2ccccc2)N(c2ccccc2)C1=O` [Vergleichs-substanz A, 4-(Butyl)-1,2-di-(phenyl)-pyrazolidin-3,5-dion, reference compound], the change in vivo at 12.5 mg/kg [2, 5] is reported as -7%.
For `COc1ccc2c(c1)c(CC(=O)O)c(C)n2C(=O)c1ccc(Cl)cc1` [Indometacin, 1-(p-Chlorbenzoyl)-5-(methoxy)-2-(methyl)-indol-3-ylessig-säure, reference compound], the “Ratten mit Geschwüren (Ulcus)” value ([3]; single dose 15 mg/kg, share of rats with ulcers) was 100%.
Compound `CSc1nc(-c2ccc(C(F)(F)F)cc2)n(-c2ccc(F)cc2)n1` [Beispiel 45, 1-[4'-(Fluor)-phenyl]-5-[4"-(trifluormethyl)-phenyl]--3-[methylthio]-1,2,4-triazol] has a change in vivo at 6.25 mg/kg ([2]; po) of -25% and a change in vivo at 12.5 mg/kg [2, 5] of -48%.
